From US12065427B2, “Heterocyclic compounds capable of activating STING” (BOEHRINGER INGELHEIM INTERNATIONAL GMBH, priority 2021, dated 2024)
Converted amounts (≈) assume the structure as drawn.

Legend:
[1] = target: T1, STING R232H-variant (Homo sapiens, UniProt Q86WV6); assay: IRF-inducible SEAP reporter assay in THP1-Blue ISG cells, STING R232H-variant; format: cell-based; settings: 24 hours incubation
T1 construct: expressed in transfected cells; host or cells: THP1-Blue ISG hSTING KO clone, retroviral MSCV-ires-GFP-Blasti
T1 sequence (Q86WV6 whole entry, stated change not applied): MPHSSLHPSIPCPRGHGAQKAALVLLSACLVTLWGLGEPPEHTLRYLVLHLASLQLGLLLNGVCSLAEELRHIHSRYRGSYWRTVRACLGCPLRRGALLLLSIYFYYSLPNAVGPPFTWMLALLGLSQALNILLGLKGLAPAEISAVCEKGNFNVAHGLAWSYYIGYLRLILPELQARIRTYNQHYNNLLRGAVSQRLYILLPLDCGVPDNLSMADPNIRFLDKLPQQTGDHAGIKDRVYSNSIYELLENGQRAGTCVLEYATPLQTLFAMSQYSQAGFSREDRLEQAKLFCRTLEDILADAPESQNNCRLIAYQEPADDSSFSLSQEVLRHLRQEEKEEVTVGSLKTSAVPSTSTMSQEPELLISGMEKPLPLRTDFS
In short: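 THP1-Blue ISG cells, endogenous STING knocked out by CRISPR and re-expressing hSTING R232H, with IRF-inducible SEAP reporter. Treated 24 h at 37 °C with 8-point compound dilutions (0.5% DMSO final); SEAP read by Quanti-Blue OD 620 nm after 30 min. EC50 from four-parameter fit.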

[2] = target: T2, STING HAQ-variant (Homo sapiens, UniProt Q86WV6, G230A/H232R/R293Q/R71H); assay: IRF-inducible SEAP reporter assay in THP1-Blue ISG cells, STING HAQ-variant; format: cell-based; settings: STING HAQ-variant (parental or re-introduced), 24 hours incubation
T2 construct: parental THP1-Blue™ ISG cell lines (which express endogenously HAQ); host or cells: THP1-Blue ISG (parental, endogenous HAQ) or STING-KO clone re-transduced with HAQ (MSCV-ires-GFP-Blasti)
T2 sequence (Q86WV6 whole entry R71H/G230A/H232R/R293Q): as the sequence (Q86WV6 whole entry, stated change not applied) above, with R71H, G230A, H232R, R293Q counted along it
In short: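 THP1-Blue ISG cells expressing STING HAQ, either endogenously (parental) or re-introduced after CRISPR knockout, were seeded at 10000 cells/well. They received 8-point compound dilutions (0.5% DMSO final) for 24 hours at 37° C. IRF-driven SEAP was read with Quanti-Blue at OD 620 nm after 30 minutes, and EC50 came from four-parameter fits.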

[3] = target: T3, STING H232R-variant (Homo sapiens, UniProt Q86WV6, H232R); assay: IRF-inducible SEAP reporter assay in THP1-Blue ISG cells, STING H232R-variant; format: cell-based; settings: STING H232R-variant (WT), 24 hours incubation
T3 construct: expressed in transfected cells; host or cells: THP1-Blue ISG hSTING KO clone, retroviral MSCV-ires-GFP-Blasti
T3 sequence (Q86WV6 whole entry H232R): as the sequence (Q86WV6 whole entry, stated change not applied) above, with H232R counted along it
In short: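 THP1-Blue ISG cells with endogenous STING deleted by CRISPR and retrovirally re-expressing human STING H232R; 8-point compound dilutions, 0.5% DMSO final, 24 h at 37 °C. SEAP read by Quanti-Blue, 30 min, OD 620 nm; EC50 and Hill slope from four-parameter fit.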

[4] = Solubility measurements (HTS) at pH 6.8; format: physicochemical; settings: kinetic from dmso stock; aqueous McIlvaine buffer pH 6.8, 24 h at room temperature, from 10 mM DMSO stock; read-out: Soblubility
Protocol: Aqueous solubilities were determined from 10 mM stock solutions of the compounds in DMSO diluted to a final concentration of 250 μM with aqueous McIlvaine buffer at pH 6.8, or with acetonitrile/water (1:1) as a reference. Samples were shaken for 24 h at room temperature in 96-well plates (Whatman Uniplate® 96 wells, 750 μL, polypropylene, round bottom). The plate was then centrifuged at 3,000 rpm for 2 min. 250 μL of each sample were transferred to a Millipore MultiScreenHTS filter plate with a polycarbonate membrane, pore size 0.45 μm. Filtrates were collected by centrifugation at 3,000 rpm for 2 min. The dissolved concentrations were determined by UPLC/UV (Ultra-Performance Liquid Chromatography/ultraviolet) on a Waters ACQUITY UPLC® SQD system equipped with a Waters ACQUITY UPLC® BEH 2.1×50 mm C18 column, particle size 1.7 μm, using a short gradient with water/0.1% formic acid as solvent A and acetonitrile/0.1% formic acid as solvent B (5 to 95% B with 1.7 min total cycle time). Compounds signals were measured with a photodiode array UV detector operated at 254 nm. Solubilities were determined with a one point calibration by comparing peak areas relative to the reference standard using Waters Empower software.

[5] = target: T4, STING AQ-variant (Homo sapiens, UniProt Q86WV6, G230A/H232R/R293Q); assay: IRF-inducible SEAP reporter assay in THP1-Blue ISG cells, STING AQ-variant; format: cell-based; settings: 24 hours incubation
T4 construct: expressed in transfected cells; host or cells: THP1-Blue ISG hSTING KO clone, retroviral MSCV-ires-GFP-Blasti
T4 sequence (Q86WV6 whole entry G230A/H232R/R293Q): as the sequence (Q86WV6 whole entry, stated change not applied) above, with G230A, H232R, R293Q counted along it
In short: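 THP1-Blue ISG cells with endogenous STING knocked out by CRISPR and re-expressing the human STING AQ variant; compounds in 8-point dilution, final DMSO 0.5%, 24 h at 37 °C. SEAP read after 30 min with Quanti-Blue as OD 620 nm; EC50 and Hill slope from four-parameter fits.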

[6] = in vitro; settings: human, Caco-2, pH 7.4
Protocol: Cellular Permeability Measurements
(§1) Caco-2 cells were obtained from Leibniz Institute DSMZ-German Collection of Microorganisms and Cell Cultures (Braunschweig, Germany) and cultured in DMEM (Dulbecco's modified Eagle medium) containing (in final concentrations) 10% FCS (fetal calf serum), 1% NEAA (non-essential amino acids), 2 mM Glutamin, 100 U/mL Penicillin and 100 μg/mL Streptomycin. Caco-2 cells were seeded either onto 24-well Transwell inserts (Corning, #3379) for bidirectional permeability assays at a density of 160,000 cells/cm^2 and cultured for 3 weeks, with media change on every second day.
(§2) For bidirectional permeability assays 10 mM DMSO stock solutions were diluted in transport buffer (final concentrations: 128.13 mM NaCl, 5.36 mM KCl, 1 mM MgSO4, 1.8 mM CaCl2, 4.17 mM NaHCO3, 1.19 mM Na2HPO4, 0.41 mM NaH2PO4, 15 mM 2-[4-(2-hydroxyethyl)piperazin-1-yl]ethanesulfonic acid (HEPES), 20 mM glucose, pH 7.4) containing 0.25% bovine serum albumin to a final concentration of 10 μM of the test compounds and added to the apical or basal compartment. Cells were incubated with the compounds for up to 2 h. Samples from the opposite compartment were taken at different timepoints.
(§3) Compound concentrations in the compartments were quantified using a RapidFire-based high-throughput HPLC/MS/MS system (high performance liquid chromatography/mass spectrometry; Bio-Cius) that was customized to a fully automated and flexible platform, termed RIAS. In this modified setup, the sample was aspirated by a vacuum pump into a 10 μL sample loop for 250 ms and flushed onto a C4 cartridge (3.8 μL bed volume; Bio-Cius) with the aqueous mobile phase (99.9% water, 0.09% formic acid, and 0.01% TFA; flow rate 1.5 mL/min). Prior to bioanalysis samples were spiked with internal standard solution and diluted with acetonitrile (ACN) for protein precipitation. Measurement was operated in multiplereaction monitoring (MRM) mode. Quantification was performed using external calibration. A solid-phase extraction step retained the analyte for 3000 ms while interfering matrix (e.g., buffer components) was removed. With a simple step gradient, the analyte was back-eluted from the cartridge for 3,000 ms with the organic mobile phase (99.9% acetonitrile/methanol [1:1, v:v], 0.09% formic acid, and 0.01% TFA) and flushed into the mass spectrometer at a flow rate of 1.25 mL/min. Afterwards, the cartridge was re-equilibrated with the aqueous mobile phase for 500 ms (flow rate 1.5 mL/min).
(§4) Apparent permeability coefficients in the apical to basal direction (Papp,AB) and in the basal to apical direction (Papp,BA) and efflux ratios were calculated as follows: Papp,AB=QAB/(C0·s·t) Papp,BA=QBA/(C0·s·t) Efflux ratio=Papp,BA/Papp,AB
(§5) where Q is the amount of compound recovered in the receiver compartment after the incubation time t, C0 the initial compound concentration given to the donor compartment, and s the surface area of the Transwell inserts. […] In addition, transepithelial electrical resistance (TEER) values are measured for each plate before the permeability assay, and total recovery in donor and receiver compartments was determined for each compound.

[7] = target: T5, STING R293Q-variant (Homo sapiens, UniProt Q86WV6, H232R/R293Q); assay: IRF-inducible SEAP reporter assay in THP1-Blue ISG cells, STING R293Q-variant; format: cell-based; settings: 24 hours incubation
T5 construct: expressed in transfected cells; host or cells: THP1-Blue ISG hSTING KO clone, retroviral MSCV-ires-GFP-Blasti
T5 sequence (Q86WV6 whole entry H232R/R293Q): as the sequence (Q86WV6 whole entry, stated change not applied) above, with H232R, R293Q counted along it
In short: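 THP1-Blue ISG cells with endogenous STING knocked out (CRISPR) and retrovirally re-expressing human STING R293Q; 10000 cells/well, compound 24 h at 37 °C, 0.5% DMSO final. SEAP read by Quanti-Blue (30 min, OD 620 nm); EC50 and Hill slope from 8-point four-parameter fit.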

[8] = tested on: Human STING (hSTING, residues 155-341); assay: Interaction with hSTING as determined by Differential Scanning Fluorimetry (DSF); format: binding; settings: 100 μM test compounds, 5 μM target protein
In short: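 Thermal shift of hSTING (residues 155-341, 5 μM) with test compounds at 100 μM in 20 mM Tris, 150 mM NaCl, pH 7.5, using 5× SYPRO Orange. Ramped 25 to 95 °C at 0.5 °C per cycle (15 s/cycle) by real-time PCR fluorescence. Tm from duplicate melting curves, averaged.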

[9] = Cellular permeability measurements, bidirectional Caco-2 assay; settings: human, Caco-2, pH 7.4
Protocol: Cellular Permeability Measurements
as §1, §2, §3, §4, §5

| SMILES | EC50 [1] [nM] | EC50 [2] [nM] | EC50 [3] [nM] | solubility kinetic at 24 h [4] [µg/mL] | EC50 [5] [nM] | Papp A→B at 10 μM [6] [×10⁻⁶ cm/s] | efflux ratio at 10 μM [6] | EC50 [7] [nM] | thermal shift (ΔTm) [8] [K] | efflux ratio at 10 μM [9] |
| --- | --- | --- | --- | --- | --- | --- | --- | --- | --- | --- |
| Cc1cccc2c(-c3cccc4nn(C)cc34)nn(-c3ccc(N4CCC(C(=O)O)CC4)nc3)c12 [Example #57, 1-(5-(2′,7-dimethyl-1H,2′H-[3,4′-biindazol]-1-yl)pyridin-2-yl)piperidine-4-carboxylic acid] | 200 | 700 | 200 | 80 (≈ 171 µM) | 300 | 15 | 1.2 | 600 | 17 |  |
| Cc1cccc2c(-c3cccc4nn(C)cc34)nn(-c3ccc(N4CC5(COC5)C4)nc3)c12 [compound 3, 2′,7-dimethyl-1-(6-{2-oxa-6-azaspiro[3.3]heptan-6-yl}pyridin-3-yl)-1H,2′H-3,4′-biindazole] |  | 3000 |  |  |  |  |  |  | 20 | 0.6 |
| Cn1cc2c(-c3nn(-c4ccc(N5CCC(C(=O)O)CC5)nc4)c4c(C(F)(F)F)cccc34)cccc2n1 [Example #67, 1-{5-[2′-methyl-7-(trifluo-romethyl)-1H,2′H-[3,4′-biindazol]-1-yl]pyridin-2-yl}piperidine-4-carboxylic acid] | 800 | 2200 | 700 | 82 (≈ 158 µM) | 2300 | 16 | 1.2 | 2100 | 23 |  |

More lines, main results first:

| EC50 [1] [nM] | EC50 [2] [nM] | EC50 [3] [nM] | solubility kinetic at 24 h [4] [µg/mL] | EC50 [5] [nM] | Papp A→B at 10 μM [6] [×10⁻⁶ cm/s] | efflux ratio at 10 μM [6] | EC50 [7] [nM] | SMILES | thermal shift (ΔTm) [8] [K] | efflux ratio at 10 μM [9] |
| --- | --- | --- | --- | --- | --- | --- | --- | --- | --- | --- |
| 300 | 1400 | 300 | 70 (≈ 146 µM) | 700 | 14 | 1 | 700 | Cc1cc(C)c2c(c1)c(-c1cccc3nn(C)cc13)nn2-c1ccc(N2CC3C(C2)C3C(=O)O)nc1 (stereo not drawn) [compound 69, 3-(5-{2′,5,7-trimethyl-1H,2′H-[3,4′-biindazol]-1-yl}pyridin-2-yl)-3-azabicy-clo[3.1.0]hexane-6-car-boxylic acid] |  |  |
| 600 | 800 | 200 | 63 (≈ 131 µM) | 700 |  |  | 600 | COc1cccc2c(-c3cccc4nn(C)cc34)nn(-c3ccc(N4CC5C(C4)C5C(=O)O)nc3)c12 (stereo not drawn) [compound 29, 3-(5-{7-methoxy-2′-methyl-1H,2′H-[3,4′-biindazol]-1-yl}pyridin-2-yl)-3-azabicyclo[3.1.0]hex-ane-6-carboxylic acid] | 22 |  |
| 200 | 900 | 200 | 60 (≈ 124 µM) | 700 |  |  | 600 | Cn1cc2c(-c3nn(-c4ccc(N5CC6C(C5)C6C(=O)O)nc4)c4c(Cl)cccc34)cccc2n1 (stereo not drawn) [compound 26, 3-(5-{7-chloro-2′-methyl-1H,2′H-[3,4′-biindazol]-1-yl}pyridin-2-yl)-3-azabicy-clo[3.1.0]hexane-6-carbox-ylic acid] |  |  |
| 100 | 200 | 100 | 66 (≈ 142 µM) | 100 | 11 | 2.5 | 200 | Cc1cccc2c(-c3cccc4nn(C)cc34)nn(-c3ccc(N4CC5C(C4)C5C(=O)O)nc3)c12 (stereo not drawn) [Example #59, 3-(5-{2′,7-dimethyl-1H,2′H-[3,4′-biindazol]-1-yl}pyridin-2-yl)-3-azabicy-clo[3.1.0]hexane-6-car-boxylic acid] | 21 |  |
